Entries after “also recorded” stand apart in the source; their conditions may differ.
Test system: rat model of fibromyalgia pain (reserpine-induced mechanical allodynia)
Assay: Mechanical allodynia (von Frey 50% response threshold) in reserpine-induced rat model of fibromyalgia pain
Assay type: in vivo
Source text: The purpose of the study is to assess the efficacy of the described compounds in the rat model of fibromyalgia pain.
Animals were assigned to treatment groups based on Day 0 pre-dose von Frey 50% response thresholds so that group means of the mean paw withdrawal latencies were approximately equal. Animals were ranked by pre- and post-reserpine baseline change from lowest to highest, and treatments were assigned randomly within stratified sub-groups according to the total number of treatment groups in the study.
The animals were dosed in sequence based on animal number, so that the distribution of treatment across a given set of animals was not predictable.
Mechanical fibromyalgia-associated allodynia is measured using […] (Stoelting©; Wood Dale, Ill., USA) with varying stiffness (0.04, 0.07, 0.16, 0.4, 1.0, 4.0, and 8.0 g) according to the up-down method 1. Animals were placed in individual acrylic chambers on a metal mesh surface and allowed to acclimate to their surroundings for a minimum of 15 minutes before testing. Each filament was presented perpendicular to the plantar surface with sufficient force to cause slight buckling against the paw and held for approximately 4 seconds or until a positive response is noted (paw sharply withdrawn). Testing was initiated with the 0.4 g filament. In the absence of a paw withdrawal response, the next stronger stimulus was presented. In the event of paw withdrawal, the next weaker stimulus was used. This process was repeated until 4 responses after the initial change in response (no response to positive response or positive response to no response) were obtained. […] The 50% response threshold is calculated using the formula:
50% response threshold (g)=(10(Xf+kδ))/10,000
• Pre-Injury mechanical fibromyalgia-associated allodynia testing (vF) • Reserpine injection
• Mechanical fibromyalgia-associated allodynia testing (vF; time baseline) • Dosing (time 0 min) • Mechanical fibromyalgia-associated allodynia testing (vF; time ˜1 hour) • Mechanical fibromyalgia-associated allodynia testing (vF; time ˜2 hour) • Mechanical fibromyalgia-associated allodynia testing (vF; time ˜4 hour) • Euthanasia
Pain was induced by three daily doses of 1 mg/kg reserpine, and mechanical fibromyalgia-associated allodynia was assessed using von Frey filaments. Mechanical fibromyalgia-associated allodynia was measured prior to and the first reserpine injection and 4 days following the third injection. GABAA receptor modulators (0.3 or 3 mg/kg), pregabalin (30 mg/kg) or vehicle (0.5% methylcellulose) were administered 4 days after the last reserpine injection, with mechanical fibromyalgia-associated allodynia being assessed prior to, and at 1, 2, and 4 hours post-administration to determine the efficacy of GABAA receptor modulators in this model.

Row | SMILES | Mean Paw Response Thresholds (0.3 mg/kg PO group, Day 0, Baseline (post-reserpine, before dosing)) [g] | Mean Paw Response Thresholds (0.3 mg/kg PO group, Pre-reserpine (before dosing)) [g] | Mean Paw Response Thresholds (0.3 mg/kg PO, Day 0, 1 hr post-dosing) [g] | Mean Paw Response Thresholds (0.3 mg/kg PO, Day 0, 2 hr post-dosing) [g] | Mean Paw Response Thresholds (0.3 mg/kg PO, Day 0, 4 hr post-dosing) [g] | Mean Paw Response Thresholds (3 mg/kg PO group, Day 0, Baseline (post-reserpine, before dosing)) [g] | Mean Paw Response Thresholds (3 mg/kg PO group, Pre-reserpine (before dosing)) [g] | Mean Paw Response Thresholds (3 mg/kg PO, Day 0, 1 hr post-dosing) [g] | Mean Paw Response Thresholds (3 mg/kg PO, Day 0, 2 hr post-dosing) [g] | Mean Paw Response Thresholds (3 mg/kg PO, Day 0, 4 hr post-dosing) [g] | Mean Paw Response Thresholds (30 mg/kg PO group, Day 0, Baseline (post-reserpine, before dosing)) [g] | Mean Paw Response Thresholds (30 mg/kg PO group, Pre-reserpine (before dosing)) [g] | Reversal of reserpine-induced mechanical fibromyalgia-associated allodynia (response thresholds) (30 mg/kg PO, 1, 2 and 4 hour time points) | Mean Paw Response Thresholds (30 mg/kg PO, Day 0, 1 hr post-dosing) [g] | Mean Paw Response Thresholds (30 mg/kg PO, Day 0, 2 hr post-dosing) [g] | Mean Paw Response Thresholds (30 mg/kg PO, Day 0, 4 hr post-dosing) [g]
1 | CC(C)(O)c1cnn2c(-c3ccc(F)c(-c4c(F)cccc4C#N)c3)cnc2n1 [Compound 1] | 3.68 | 14.50 | 6.52 | 8.36 | 7.96 | 3.82 | 14.01 | 6.08 | 7.98 | 7.54 |  |  |  |  |  | 
2 | CC(C)C[C@H](CN)CC(=O)O [pregabalin, reference compound] |  |  |  |  |  |  |  |  |  |  | 3.84 | 14.55 | significantly increased median response thresholds at all of the time points following dosing; also recorded: significantly reversed mechanical fibromyalgia-associated allodynia | 9.34 | 10.17 | 10.23

Source: patent US20220152037A1, “USE OF GABAA RECEPTOR MODULATORS FOR TREATMENT OF PAIN” (NEUROCYCLE THERAPEUTIC, INC., priority 2019, published 2022)
